Usually IC50 stands for the concentration that gives 50% inhibition. Low values mean greater potency, high ones weaker potency. What is called Papp A→B is the apparent permeability from the apical to the basolateral side of a cell layer.

The values below come from patent publication US20240335431A1, “1-H-PYRROLO[2,3-c]PYRIDINE COMPOUNDS” (Acerta Pharma B.V., priority 2023, published 2024).

In one data set the test system is MOLM-13 cells. Description: Proliferation assay, MOLM-13 (CellTiter-Glo, 7 days). In kind it is cell-based, human. Put shortly:
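Cells were seeded at line-specific low densities for linear growth, exposed to 3.16-fold serial compound dilutions at 0.1% DMSO, and incubated 7 days at 37 °C, 5% CO2. Viability was read by CellTiter-Glo 2.0 luminescence; IC50 came from one-site fits of % inhibition, normalized between DMSO-treated cells (100%) and a day-0 plate (0%).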
On the technique in general: Cellular ATP, detected with luciferase, serves as a proxy for viable cell number.

Data set [1] in a line: Caco-2 cell monolayers intrinsic permeation assay in the presence of efflux inhibitors. In kind it is in vitro ADME. To be noted: Caco-2, with efflux inhibitors. The method in brief:
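Caco-2 monolayers grown 14–18 days on Transwells; compound dosed apically in HBSS with efflux inhibitors (Zosuquidar, Benzbromarone, KO-143), inhibitors also basolateral, 37 °C with shaking. Sampled at 0, 45 and 120 min, analysed by LC/MS/MS; apical-to-basolateral Papp (cm/s) calculated.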
For orientation: Caco-2 monolayers are a common model of the intestinal barrier.

Molecules are shown by their SMILES. Where two headings read alike, the source gives them in different places.

In turn, `CCN(C(=O)c1cc(F)ccc1-n1cc(C(=O)C2CCN(C(=O)[C@H]3N[C@H]4C[C@@H]3[C@@H](F)C4)CC2)c2ccncc21)C(C)C` [Example 30, N-Ethyl-5-fluoro-2-(3-(1-((1S,3S,4S,5S)-5-fluoro-2-azabicyclo[2.2.1]heptane-3-carbonyl)piperidine-4-carbonyl)-1H-pyrrolo[2,3-c]pyridin-1-yl)-N-isopropylbenzamide] came in with an IC50 in the data set with MOLM-13 cells (Homo sapiens, MOLM-13, 168 h) of 44 nM. For the same compound, the Papp A→B in data set [1] came to 0.8 ×10⁻⁶ cm/s.

`CC(C)N(C(=O)c1cc(F)ccc1-n1cc(C(=O)[C@@H]2CCN(C[C@H]3CC[C@H](NS(C)(=O)=O)CC3)C2)c2ccncc21)C(C)C` [Example 4, 5-Fluoro-N,N-diisopropyl-2-(3-((R)-1-(((1r,4R)-4-(methylsulfonamido)-cyclohexyl)methyl)pyrrolidine-3-carbonyl)-1H-pyrrolo[2,3-c]pyridin-1-yl)benzamide] displayed an IC50 in the data set with MOLM-13 cells (Homo sapiens, MOLM-13, 168 h) of 156 nM. Besides, the Papp A→B in data set [1] was 2 ×10⁻⁶ cm/s.

`Cc1c(C(=O)C2CCN(C(=O)[C@H]3NC[C@@H]4C[C@@H]43)CC2)c2ccncc2n1-c1ccc(F)cc1C(=O)N(CC(F)(F)F)C(C)C` (single isomer, unassigned) [Example 51-1] returned an IC50 in the data set on MOLM-13 cells of 1610 nM. Also, the Papp A→B in data set [1] was 1.7 ×10⁻⁶ cm/s.

`CCN(C(=O)c1cc(F)ccc1-n1cc(C(=O)C2CCN(C(=O)[C@H]3N[C@@H]4CC[C@H]3C4)CC2)c2ccncc21)C(C)C` [Example 31, 2-(3-(1-((1R,3S,4S)-2-Azabicyclo[2.2.1]heptane-3-carbonyl)piperidine-4-carbonyl)-1H-pyrrolo[2,3-c]pyridin-1-yl)-N-ethyl-5-fluoro-N-isopropylbenzamide]: the IC50 in the data set with MOLM-13 cells (Homo sapiens, MOLM-13, 168 h) stood at 38 nM. The Papp A→B in data set [1] amounted to 0.1 ×10⁻⁶ cm/s.

In the data set with MOLM-13 cells (Homo sapiens, MOLM-13, 168 h), `CC(C)c1ncsc1-c1cc(F)ccc1-n1cc(C(=O)C2CCN(C(=O)[C@H]3N[C@@H]4CC[C@H]3C4)CC2)c2ccncc21.O=CO` [Example 42, (1-((1R,3S,4S)-2-Azabicyclo[2.2.1]heptane-3-carbonyl)piperidin-4-yl)(1-(4-fluoro-2-(4-isopropylthiazol-5-yl)phenyl)-1H-pyrrolo[2,3-c]pyridin-3-yl)methanone 1·formic acid] had an IC50 of 40 nM. The Papp A→B in data set [1] was 1.3 ×10⁻⁶ cm/s.
